Tests used:
Assay in all cases: 3' UTR reporter interaction score (median-centred robust z-score of log2 firefly/Renilla activity); higher = less repression of the 3' UTR reporter
Conditions in all cases: HEK293T; 48 h
PHF6 = system: PHF6
Outline: (§1)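 HEK293T cells were seeded at 10,000 per well in 96-well plates and co-transfected with DharmaFECT Duo, using 100 ng of a firefly luc2P reporter carrying the gene's 3' UTR, 20 ng of Renilla pRL-TK control and 2.5 pmol of miRNA mimic. Both luciferase activities were measured 48 h after transfection. The interaction score is the log-transformed firefly/Renilla ratio, converted to a per-plate robust z-score from the median and median absolute deviation and then median-centred per miRNA, with more negative values indicating interaction. Scores were averaged across at least two independent screens.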

FBXW7 = system: FBXW7
Outline: as §1

EZH2 = system: EZH2
Outline: as §1

MYT1L = system: MYT1L
Outline: as §1

PHOX2B = system: PHOX2B
Outline: as §1

MYCN = system: MYCN
Outline: as §1

ZEB2 = system: ZEB2
Outline: as §1

NOTCH1 = system: NOTCH1
Outline: as §1

TP53 = system: TP53
Outline: as §1

BRCA2 = system: BRCA2
Outline: as §1

MYB = system: MYB
Outline: as §1

RB1 = system: RB1
Outline: as §1

MYC = system: MYC
Outline: as §1

HRAS = system: HRAS
Outline: as §1

Sequence	3' UTR reporter interaction score (PHF6)	3' UTR reporter interaction score (FBXW7)	3' UTR reporter interaction score (EZH2)	3' UTR reporter interaction score (MYT1L)	3' UTR reporter interaction score (PHOX2B)	3' UTR reporter interaction score (MYCN)	3' UTR reporter interaction score (ZEB2)	3' UTR reporter interaction score (NOTCH1)	3' UTR reporter interaction score (TP53)	3' UTR reporter interaction score (BRCA2)	3' UTR reporter interaction score (MYB)	3' UTR reporter interaction score (RB1)	3' UTR reporter interaction score (MYC)	3' UTR reporter interaction score (HRAS)
AGGAAGCCCUGGAGGGGCUGGAGGU	-0.529	-0.101	-0.359	1.24	1.18	1.43	-0.152	-1.34	0.127	-1.21	0.39	-0.165	-0.314	0.456
UCACAGUGAACCGGUCUCUUUC	-3.58	-1.67	0.78	0.655	0.244	0.302	-2.39	-0.749	0.241	0.111	-1.23	-0.537	0.45	-0.688
CAUAAAGUAGAAAGCACUAC	-0.673	-0.553	-0.0463	-0.385	0.845	-0.0538	-0.00923	0.3	-0.122	0.352	-0.0675	0.941	0.0993	-0.266
UUAAGGCACGCGGUGAAUGCCA	-1.29	0.904	-1.56	2.33	0.282	0.541	-0.335	0.623	0.35	-0.0269	-2.16	-1.9	-0.0293	0.364
UGCACCAUGGUUGUCUGAGCAUG	0.727	-1.84	0.00438	0.0254	-1.01	-5.44	-1.45	-0.682	0.617	0.899	0.379	0.168	-0.0708	-0.315
UAUGUGGGAUGGUAAACCGCUU	-0.864	1.55	0.226	-2.09	-0.0868	0.212	2.77	0.24	-0.352	-0.81	1.45	0.217	0.022	-0.809
UGGUUUACCGUCCCACAUACAU	-0.512	0.14	0.684	1.3	0.385	0.327	1.07	-0.0746	-0.635	-0.68	0.643	0.158	-0.285	-0.0846
UAAAGUGCUGACAGUGCAGAU	0.442	-0.356	-0.906	-2.37	0.0581	-0.735	0.619	0.373	-0.0101	0.319	-0.631	-0.838	0.528	0.312
UGUAAACAUCCUACACUCUCAGC	0.545	0.711	-0.7	0.183	0.58	-0.445	-2.01	-1.62	0.239	0.774	0.661	0.235	-0.915	0.698
UCCCACGUUGUGGCCCAGCAG	0.0798	-0.0713	0.303	-0.668	-0.461	-0.504	-0.736	0.591	0.863	0.793	-0.00342	-2.41	0.28	-0.421
AAAGACAUAGGAUAGAGUCACCUC	-0.548	1.01	-0.299	-1.82	0.476	-0.0475	0.2	-1.33	0.557	-0.417	0.438	-0.442	-0.142	-0.101
UAGCAGCACGUAAAUAUUGGCG	-0.551	-0.915	0.0745	-0.142	-0.629	0.0935	0.217	-0.0927	-0.054	-0.0822	0.8	-0.115	0.946	-0.0204
CAGCAGCACACUGUGGUUUGU	1.13	-2.99	-1.21	-4.01	0.464	-0.42	1.1	-0.283	-0.308	0.267	-2.62	-0.141	0.347	-1.05
UUCAAGUAAUCCAGGAUAGGC	-0.0329	1.99	-4.57	1.27	-0.534	-0.368	-0.465	1.68	0.423	1.36	1.11	-0.662	-1.71	-0.41
UGGUCUAGGAUUGUUGGAGGAG	-1.9	-0.0822	1.07	-1.45	-0.574	0.689	-1.89	-3.72	0.772	0.659	0.332	-0.907	0.131	1.1
GAGUGCCUUCUUUUGGAGCGU	2.96	0.805	0.0213	1.25	-3.88	0.414	-0.377	-0.567	-0.254	-0.0488	-0.982	0.093	-0.339	-0.294
GCCUGCUGGGGUGGAACCUGG	0.254	-0.733	-0.39	-0.443	0.0382	-0.962	0.26	-0.0223	-0.747	0.403	0.0969	1.37	0.0868	-0.0157
AACAGGUGACUGGUUAGACAA	-0.792	1.13	0.144	-0.793	2.14	-1.32	-0.428	1.15	-0.34	-0.352	-0.0471	-0.637	-1.37	0.125
GUGUCUUUUGCUCUGCAGUCA	-0.433	-1.58	1.94	0.207	-2.8	0.0597	-1.45	-1.08	0.375	-0.493	-0.175	0.189	1.06	2.01

Sequence	3' UTR reporter interaction score (PHF6)	3' UTR reporter interaction score (FBXW7)	3' UTR reporter interaction score (EZH2)	3' UTR reporter interaction score (MYT1L)	3' UTR reporter interaction score (PHOX2B)	3' UTR reporter interaction score (MYCN)	3' UTR reporter interaction score (ZEB2)	3' UTR reporter interaction score (NOTCH1)	3' UTR reporter interaction score (TP53)	3' UTR reporter interaction score (BRCA2)	3' UTR reporter interaction score (MYB)	3' UTR reporter interaction score (RB1)	3' UTR reporter interaction score (MYC)	3' UTR reporter interaction score (HRAS)
UAGGUAGUUUCAUGUUGUUGG	-0.281	1.58	-1.54	1.55	1.68	-1.16	0.231	-0.0228	0.576	0.216	-1.52	0.553	-1.91	-0.663
AGUAUUCUGUACCAGGGAAGGU	-1.2	1.75	-2.56	-1.07	0.0656	0.786	-1.77	0.758	0.107	0.623	-0.25	-0.386	0.255	-0.0345
GUGUCUGCUUCCUGUGGGA	0.326	0.999	-0.0979	0.553	-0.344	-0.382	0.24	-0.363	0.286	0.42	-0.0781	-0.362	-0.0744	-2.48
AAAAUGGUUCCCUUUAGAGUGUU	0.573	0.697	0.888	0.818	-0.183	0.195	-1.19	-2.3	-1.35	-1.38	-0.486	-2.85	0.494	0.747
UAAUACUGUCUGGUAAAACCGU	0.422	-1.04	0.716	0.747	-0.137	0.575	-6.85	-1.39	0.0543	-0.165	-2.29	0.612	0.8	0.264
AAGCCUGCCCGGCUCCUCGGG	-0.0107	0.255	-0.223	-0.815	0.478	-0.588	1.11	-0.439	-1.82	0.422	0.0778	-0.201	0.642	0.291
AUGAUCCAGGAACCUGCCUCU	-2.82	1.33	1.23	-2.69	-1.8	0.642	-0.647	0.405	-0.239	0.796	-0.332	-0.262	0.0276	-0.133
CAUGCCUUGAGUGUAGGACCGU	1.76	0.998	0.42	-1.07	-1.4	-0.364	-1.59	-0.883	0.524	0.421	0.293	0.637	-1.17	-0.893
AACGCGCUUCCCUAUAGAGGG	0.0798	0.0883	1.38	-0.267	-0.021	-1.41	-0.982	0.382	1.12	0.644	-0.83	0.667	-0.143	-1.1
UGGAGAGAAAGGCAGUUC	-0.104	-1.52	-0.838	0.463	-0.292	0.412	1.17	-0.015	-1.31	-0.859	0.823	-0.051	0.053	-0.0201
CGGGUGGAUCACGAUGCAAUUU	-0.0241	0.899	-0.645	0.0585	-0.988	0.00745	-1.87	0.128	0.809	0.639	-0.118	0.702	0.166	-0.371
UAGCUUAUCAGACUGAUGUUGA	0.231	0.067	0.437	-0.0152	0.355	-0.604	-0.0716	-0.0874	-0.564	-0.228	0.65	0.943	-0.465	-0.166
UUAUAAUACAACCUGAUAAGUG	-0.286	-0.529	0.963	-1.13	-0.00808	0.404	-0.469	-0.345	-0.443	0.693	-0.653	1.94	1.32	0.161
UGGCUCAGUUCAGCAGGAACAG	-0.0264	-0.156	-0.274	0.53	0.0378	0.921	0.984	-1.7	0.345	1.1	0.0413	0.0253	-2.14	-1.16
AGAGGUAUAGGGCAUGGGAAAA	0.541	-0.74	-0.166	0.692	-0.404	-2.96	1.12	0.463	-0.403	0.942	0.665	-0.615	0.244	-0.616
AAUCCUUGGAACCUAGGUGUGAGU	0.0671	-0.342	0.207	-4.11	-0.851	0.204	-0.171	-0.594	-0.232	0.643	0.656	-0.422	1.33	0.739
UAUUGCACUCGUCCCGGCCUC	0.726	-2.89	-0.851	-1.11	1.55	1.3	-1.97	-1.13	-0.261	0.27	0.69	0.116	0.586	-0.467
UAAGUGCUUCCAUGUUUGAGUGU	-0.0188	0.795	-0.327	-0.74	0.566	0.678	1.47	0.935	-0.124	-0.334	-0.941	0.167	-0.0168	0.22
UCCAGCUCCUAUAUGAUGCCUUU	-0.704	0.91	0.255	-1.49	-0.208	-0.396	-2.75	-1.09	0.0762	0.152	0.963	-0.767	0.624	-0.216

Reference: the supplement of paper PMC5844555
